Source: ChEMBL document CHEMBL4627333, “Addition of ethylamines to the phenols of bithionol and synthetic retinoids does not elicit activity in gram-negative bacteria” (2020)
Values after ≈ are worked out from the molar mass of the structure shown.

How the values were obtained:
Acinetobacter baumannii = experiment: Membrane disrupting activity in Acinetobacter baumannii ATCC 17978 assessed as antibacterial activity by measuring inhibition of bacterial growth by CLSI-based antimicrobial dilution susceptibility method
Pseudomonas aeruginosa = experiment: Membrane disrupting activity in Pseudomonas aeruginosa PA14 assessed as antibacterial activity by measuring inhibition of bacterial growth by CLSI-based antimicrobial dilution susceptibility method
Staphylococcus aureus [1] = experiment: Membrane disrupting activity in methicillin-resistant Staphylococcus aureus BF3 assessed as antibacterial activity by measuring inhibition of bacterial growth by CLSI-based antimicrobial dilution susceptibility method
Staphylococcus aureus [2] = experiment: Membrane disrupting activity in methicillin-resistant Staphylococcus aureus MW2 assessed as antibacterial activity by measuring inhibition of bacterial growth by CLSI-based antimicrobial dilution susceptibility method
Staphylococcus aureus [3] = experiment: Membrane disrupting activity in methicillin-resistant Staphylococcus aureus BF1 assessed as antibacterial activity by measuring inhibition of bacterial growth by CLSI-based antimicrobial dilution susceptibility method
Staphylococcus aureus [4] = experiment: Membrane disrupting activity in methicillin-resistant Staphylococcus aureus BF2 assessed as antibacterial activity by measuring inhibition of bacterial growth by CLSI-based antimicrobial dilution susceptibility method
Klebsiella pneumoniae = experiment: Membrane disrupting activity in Klebsiella pneumoniae WGLW2 assessed as antibacterial activity by measuring inhibition of bacterial growth by CLSI-based antimicrobial dilution susceptibility method; conditions: subsp. pneumoniae WGLW2

`O=C(O)c1ccc2cc(-c3ccc(O)c(C45CC6CC(CC(C6)C4)C5)c3)ccc2c1` [O-DEMETHYLATED ADAPALENE] was tested, and the MIC (Acinetobacter baumannii) was > 64 µg/mL, the MIC (Pseudomonas aeruginosa) was > 64 µg/mL and the MIC (Staphylococcus aureus [1]) was 1 µg/mL (≈ 2.51 µM). The MIC (Staphylococcus aureus [2]) was 2 µg/mL (≈ 5.02 µM), the MIC (Staphylococcus aureus [3]) was 2 µg/mL (≈ 5.02 µM) and the MIC (Staphylococcus aureus [4]) was 2 µg/mL (≈ 5.02 µM). For the same compound, the MIC (Klebsiella pneumoniae) was > 64 µg/mL.

In the case of `NCCOc1cc(CO)cc2ccc(-c3ccc(O)c(C45CC6CC(CC(C6)C4)C5)c3)cc12`, the MIC (Acinetobacter baumannii) is reported as > 64 µg/mL, the MIC (Pseudomonas aeruginosa) is reported as > 64 µg/mL and the MIC (Staphylococcus aureus [1]) is reported as 4 µg/mL (≈ 9.02 µM). For the same compound, the MIC (Staphylococcus aureus [2]) was 4 µg/mL (≈ 9.02 µM), the MIC (Staphylococcus aureus [3]) was 4 µg/mL (≈ 9.02 µM) and the MIC (Staphylococcus aureus [4]) was 4 µg/mL (≈ 9.02 µM). For the same compound, the MIC (Klebsiella pneumoniae) was > 64 µg/mL.

For `NCCOc1ccc(-c2ccc3cc(CO)ccc3c2)cc1C12CC3CC(CC(C3)C1)C2`, the MIC (Acinetobacter baumannii) was > 64 µg/mL, the MIC (Pseudomonas aeruginosa) was > 64 µg/mL and the MIC (Staphylococcus aureus [1]) was > 64 µg/mL. For the same compound, the MIC (Staphylococcus aureus [2]) was > 64 µg/mL, the MIC (Staphylococcus aureus [3]) was > 64 µg/mL and the MIC (Staphylococcus aureus [4]) was > 64 µg/mL. For the same compound, the MIC (Klebsiella pneumoniae) was > 64 µg/mL.

With `NCCOc1ccc(-c2ccc3cc(C(=O)O)ccc3c2)cc1C12CC3CC(CC(C3)C1)C2` the MIC (Acinetobacter baumannii) was > 64 µg/mL, the MIC (Pseudomonas aeruginosa) was > 64 µg/mL and the MIC (Staphylococcus aureus [1]) was > 64 µg/mL. For the same compound, the MIC (Staphylococcus aureus [2]) was > 64 µg/mL, the MIC (Staphylococcus aureus [3]) was > 64 µg/mL and the MIC (Staphylococcus aureus [4]) was > 64 µg/mL. For the same compound, the MIC (Klebsiella pneumoniae) was > 64 µg/mL.

With `NCCOc1cc(C(=O)O)cc2ccc(-c3ccc(O)c(C45CC6CC(CC(C6)C4)C5)c3)cc12` the MIC (Acinetobacter baumannii) was > 64 µg/mL, the MIC (Pseudomonas aeruginosa) was > 64 µg/mL and the MIC (Staphylococcus aureus [1]) was 4 µg/mL (≈ 8.74 µM). The MIC (Staphylococcus aureus [2]) was 8 µg/mL (≈ 17.5 µM), the MIC (Staphylococcus aureus [3]) was 8 µg/mL (≈ 17.5 µM) and the MIC (Staphylococcus aureus [4]) was 16 µg/mL (≈ 35 µM). For the same compound, the MIC (Klebsiella pneumoniae) was > 64 µg/mL.

Compound `Oc1c(Cl)cc(Cl)cc1Sc1cc(Cl)cc(Cl)c1O` [BITHIONOL] has an MIC (Acinetobacter baumannii) of 16 µg/mL (≈ 44.9 µM), an MIC (Pseudomonas aeruginosa) of 32 µg/mL (≈ 89.9 µM) and an MIC (Staphylococcus aureus [1]) of 0.5 µg/mL (≈ 1.4 µM). For the same compound, the MIC (Staphylococcus aureus [2]) was 1 µg/mL (≈ 2.81 µM), the MIC (Staphylococcus aureus [3]) was 1 µg/mL (≈ 2.81 µM) and the MIC (Staphylococcus aureus [4]) was 1 µg/mL (≈ 2.81 µM). The MIC (Klebsiella pneumoniae) was 64 µg/mL (≈ 180 µM).

In the case of `NCCOc1c(Cl)cc(Cl)cc1Sc1cc(Cl)cc(Cl)c1OCCN`, the MIC (Acinetobacter baumannii) is reported as 64 µg/mL (≈ 145 µM), the MIC (Pseudomonas aeruginosa) is reported as > 64 µg/mL and the MIC (Staphylococcus aureus [1]) is reported as 32 µg/mL (≈ 72.4 µM). For the same compound, the MIC (Staphylococcus aureus [2]) was 64 µg/mL (≈ 145 µM), the MIC (Staphylococcus aureus [3]) was 64 µg/mL (≈ 145 µM) and the MIC (Staphylococcus aureus [4]) was 64 µg/mL (≈ 145 µM). For the same compound, the MIC (Klebsiella pneumoniae) was 64 µg/mL (≈ 145 µM).
